Laboratory results reported in ChEMBL document CHEMBL1149942, “Characterization of the taxol structure-activity profile for the locus of the A-ring side chain” (1994).

Experiments:
J774 = test: In vitro cytotoxicity against J774.2 cells after 72 hr incubation.; assay type: functional; conditions: Mus musculus, J774, 72 h; read-out: ED50 (the source's name)
[1] = Activity in calf brain microtubule protein assembly assay.; assay type: functional, Bos taurus
J774.2 = test: Compound was tested for cytotoxicity against J774.2 cells, concentration required to inhibit cell division by 50% after 72 hr incubation; assay type: functional; conditions: Mus musculus, J774.2, 72 h; read-out: ED50 (the source's name)

CC(=O)O[C@H]1C(=O)[C@@]2(C)C([C@H](OC(=O)c3ccccc3)[C@]3(O)C[C@H](OC(=O)[C@H](O)CNC(=O)C(C)(C)C)C(C)=C1C3(C)C)[C@]1(OC(C)=O)CO[C@@H]1C[C@@H]2O (some centres not stated)
EC50 (J774): 40 µM | Assembly [1]: 28%

CC(=O)O[C@H]1C(=O)[C@@]2(C)C([C@H](OC(=O)c3ccccc3)[C@]3(O)C[C@H](OC(=O)[C@H](O)CNC(=O)c4ccc5ccccc5c4)C(C)=C1C3(C)C)[C@]1(OC(C)=O)CO[C@@H]1C[C@@H]2O (some centres not stated)
Assembly [1]: 28% | EC50 (J774.2): 26 µM

CC(=O)O[C@H]1C(=O)[C@@]2(C)C([C@H](OC(=O)c3ccccc3)[C@]3(O)C[C@H](OC(=O)[C@H](O)CNC(=O)OC(C)(C)C)C(C)=C1C3(C)C)[C@]1(OC(C)=O)CO[C@@H]1C[C@@H]2O (some centres not stated)
EC50 (J774): 2 µM | Assembly [1]: 51%

CCCCCC(=O)NC[C@@H](O)C(=O)O[C@H]1C[C@@]2(O)[C@@H](OC(=O)c3ccccc3)C3[C@](C)(C(=O)[C@H](OC(C)=O)C(=C1C)C2(C)C)[C@@H](O)C[C@H]1OC[C@@]31OC(C)=O (some centres not stated)
Assembly [1]: 34% | EC50 (J774.2): 26 µM

CC(=O)O[C@@]12CO[C@@H]1C[C@H](O)[C@@]1(C)C(=O)[C@H](O)C3=C(C)[C@@H](OC(=O)[C@H](O)[C@@H](NC(=O)OC(C)(C)C)c4ccccc4)C[C@@](O)([C@@H](OC(=O)c4ccccc4)[C@H]21)C3(C)C.O.O.O [DOCETAXEL]
EC50 (J774): 0.05 µM | Assembly [1]: 105%

CC(=O)O[C@H]1C(=O)[C@@]2(C)C([C@H](OC(=O)c3ccccc3)[C@]3(O)C[C@H](OC(=O)[C@H](O)CNC(=O)c4ccc(C(F)(F)F)cc4)C(C)=C1C3(C)C)[C@]1(OC(C)=O)CO[C@@H]1C[C@@H]2O (some centres not stated)
EC50 (J774): 23 µM | Assembly [1]: 20%

Nc1nc2c(ncn2[C@@H]2O[C@H](COP(=O)(O)OP(=O)(O)OP(=O)(O)O)[C@@H](O)[C@H]2O)c(=O)[nH]1 [GUANOSINE TRIPHOSPHATE]
Assembly [1]: 70%

CC(=O)O[C@H]1C(=O)[C@@]2(C)C([C@H](OC(=O)c3ccccc3)[C@]3(O)C[C@H](OC(=O)[C@H](O)[C@@H](NC(=O)c4ccc(C(C)=O)cc4)c4ccccc4)C(C)=C1C3(C)C)[C@]1(OC(C)=O)CO[C@@H]1C[C@@H]2O (some centres not stated)
EC50 (J774): 1.6 µM | Assembly [1]: 84%

CC(=O)O[C@H]1C(=O)[C@@]2(C)C([C@H](OC(=O)c3ccccc3)[C@]3(O)C[C@H](OC(=O)[C@H](O)CNC(=O)c4ccc(N=[N+]=[N-])cc4)C(C)=C1C3(C)C)[C@]1(OC(C)=O)CO[C@@H]1C[C@@H]2O (some centres not stated)
EC50 (J774): 20 µM | Assembly [1]: 25%

CC(=O)O[C@H]1C(=O)[C@@]2(C)C([C@H](OC(=O)c3ccccc3)[C@]3(O)C[C@H](OC(=O)[C@H](O)[C@@H](NC(=O)c4ccc(C(F)(F)F)cc4)c4ccccc4)C(C)=C1C3(C)C)[C@]1(OC(C)=O)CO[C@@H]1C[C@@H]2O (some centres not stated)
EC50 (J774): 0.9 µM | Assembly [1]: 80%

CC(=O)O[C@H]1C(=O)[C@@]2(C)C([C@H](OC(=O)c3ccccc3)[C@]3(O)C[C@H](OC(=O)[C@H](O)[C@@H](NC(=O)c4ccccc4O)c4ccccc4)C(C)=C1C3(C)C)[C@]1(OC(C)=O)CO[C@@H]1C[C@@H]2O (some centres not stated)
EC50 (J774): 0.56 µM | Assembly [1]: 93%

CC(=O)O[C@H]1C(=O)[C@@]2(C)C([C@H](OC(=O)c3ccccc3)[C@]3(O)C[C@H](OC(=O)[C@H](O)[C@@H](NC(=O)c4ccc(N=[N+]=[N-])cc4)c4ccccc4)C(C)=C1C3(C)C)[C@]1(OC(C)=O)CO[C@@H]1C[C@@H]2O (some centres not stated)
EC50 (J774): 0.28 µM | Assembly [1]: 90%

CC(=O)O[C@H]1C(=O)[C@@]2(C)C([C@H](OC(=O)c3ccccc3)[C@]3(O)C[C@H](OC(=O)[C@H](O)CNC(=O)C4CCCCC4)C(C)=C1C3(C)C)[C@]1(OC(C)=O)CO[C@@H]1C[C@@H]2O (some centres not stated)
EC50 (J774): 16 µM | Assembly [1]: 33%

CC(=O)O[C@H]1C(=O)[C@@]2(C)C([C@H](OC(=O)c3ccccc3)[C@]3(O)C[C@H](OC(=O)[C@H](O)[C@@H](NC(=O)OCc4ccccc4)c4ccccc4)C(C)=C1C3(C)C)[C@]1(OC(C)=O)CO[C@@H]1C[C@@H]2O (some centres not stated)
EC50 (J774): 0.19 µM | Assembly [1]: 94%

CC(=O)O[C@H]1C(=O)[C@@]2(C)C([C@H](OC(=O)c3ccccc3)[C@]3(O)C[C@H](OC(=O)[C@H](O)CNC(=O)c4ccccc4)C(C)=C1C3(C)C)[C@]1(OC(C)=O)CO[C@@H]1C[C@@H]2O (some centres not stated)
EC50 (J774): 20 µM | Assembly [1]: 60%

CC(=O)O[C@H]1C(=O)[C@@]2(C)[C@H]([C@H](OC(=O)c3ccccc3)[C@]3(O)C[C@H](OC(=O)[C@H](O)[C@@H](NC(=O)c4ccccc4)c4ccccc4)C(C)=C1C3(C)C)[C@]1(OC(C)=O)CO[C@@H]1C[C@@H]2O [PACLITAXEL]
EC50 (J774): 0.09 µM | Assembly [1]: 100%

CC(=O)O[C@H]1C(=O)[C@@]2(C)C([C@H](OC(=O)c3ccccc3)[C@]3(O)C[C@H](OC(=O)[C@H](O)CNC(=O)OCc4ccccc4)C(C)=C1C3(C)C)[C@]1(OC(C)=O)CO[C@@H]1C[C@@H]2O (some centres not stated)
EC50 (J774): 16 µM | Assembly [1]: 20%

CC(=O)O[C@H]1C(=O)[C@@]2(C)C([C@H](OC(=O)c3ccccc3)[C@]3(O)C[C@H](OC(=O)[C@H](O)[C@@H](NC(=O)c4ccc(C(=O)c5ccccc5)cc4)c4ccccc4)C(C)=C1C3(C)C)[C@]1(OC(C)=O)CO[C@@H]1C[C@@H]2O (some centres not stated)
EC50 (J774): 1.5 µM | Assembly [1]: 39%

CC(=O)O[C@H]1C(=O)[C@@]2(C)C([C@H](OC(=O)c3ccccc3)[C@]3(O)C[C@H](OC(=O)[C@H](O)CNC(=O)C45CC6CC(CC(C6)C4)C5)C(C)=C1C3(C)C)[C@]1(OC(C)=O)CO[C@@H]1C[C@@H]2O (some centres not stated)
EC50 (J774): 11 µM | Assembly [1]: 24%
